# Test results reported in US11191874B2, “Biomaterials for neuronal implants and use of said biomaterials in the diagnosis and therapy of neuronal diseases” (Albert-Ludwigs-U[…], priority 2014, dated 2021).
# “Also recorded” adds a separate entry of the source. Where no end group is shown, it is not given here.
# Tests used:
# [1] = test system: hippocampal neurons; experiment: Calcium sensitive FURA-2 imaging of hippocampal neurons after KCl depolarization; type: cell-based, rat; details: GsMTx4, KCl depolarization
# Method: Calcium sensitive imaging: Intracellular calcium levels were measured with the cell permeable probe FURA-2-acetoxymethyl ester (Invitrogen Life Technologies GmbH). Cells were exposed to 5 μM FURA-2-AMin DMSO (final concentration of 0.2%) for 45 minutes in a humidified incubator at 37° C. Increase in intracellular calcium levels following depolarization with 50 mM KCl was analyzed by the change in the absorption and emission spectra of FURA-2 upon Ca^2+ binding using a custom-built perfusion chamber mounted to a Zeiss Observer Z1 and the ZEN blue software (Zeiss AG, Germany).The rate of intracellular Ca^2+ increase was calculated as the slope of the linear portion of the increase in FURA-2 intensity.
# [2] = test system: GMB tumor spheroids; experiment: U-87 spheroid Matrigel invasion assay; type: cell-based; details: GsMTx4 in culture media, 3D matrix
# Method: Spheroids (which resemble a GBM tumor in vitro) are formed via the hanging drop procedure. For this, cells were seeded into a carboxymethylcellulose solution (with very high viscosity) and pipetted on the inner side of the lid of a cell culture plate. After reversing the lid and putting it back onto the cell culture plate, the cells are hanging in a drop of carboxymethylcellulose. Because of the high viscosity of the media and no possibility to attach, the cells form spheroids. […] During incubation cells start migrating out of the spheroid and invading the 3D matrix. The higher the invasive potential of the cells, the more they will invade the 3D matrix.
# [3] = test system: rat hippocampal neurons and astrocytes; experiment: Neuron-astrocyte association in mixed primary hippocampal cultures; type: cell-based; details: GsMTx4 5 μM, smooth glass substrates
# Text: The inventors therefore evaluated the response of mixed primary cultures of rat hippocampal neurons and astrocytes to the different roughness regimes.
# An also remarkable finding was that nanoroughness appeared to modulate the relationship, and dependency of neurons on astrocytes. […] After 5 days, the percent neurons that were associated with astrocytes on the 32 nm Rq surface was around 15%, which was 1.5-2 fold lower than those on other Rq's, which ranged from 20-40%, and 6 fold lower than that on the smooth glass substrate (FIG. 4c). That is, in comparison to the other Rq's, over twice as many neurons on 32 nm Rq surface were surviving independently of astrocytes. At 6 weeks however, the percent of neurons that were surviving independently of astrocytes on the 32 nm Rq was over 6 fold greater in comparison to the other Rq's. While over 90% of neurons were associated with astrocytes on other roughnesses, only 15% of neurons were associated with astrocytes on 32 nm Rq (FIG. 4d). […]
# Cell density/composition analysis: In order to analyze the cell density and composition of mixed neuron/astrocyte cultures on the different substrates at the end of the experiments, MAP-2^+, GFAP^+ and Tuj-1^+ cells were counted in 4 separately isolated cultures in 10 random image sections and on two different substrates of each isolated culture.
substance,measurement,setting,value
GsMTx4 (GCLEFWWKCNPNDDKCCRPKLKCSKLFKLCNFSF; ends and bridges not checked; cysteine pairing not given here),"FURA-2 intensity profile and rate of calcium influx upon depolarization, smooth glass versus Rq=32 nm, upon inhibition of Piezo-1",[1],is lost upon inhibition of Piezo-1; also recorded: identical
same,formation of sprouts from tumor spheroids (invasiveness),[2],significantly reduced; also recorded: less invasive potential
same,neuron-astrocyte coupling upon inhibition of Piezo-1 (FAM38A),[3],neurons decouple from astrocytes even on smooth glass substrates; also recorded: decoupling of hippocampal neurons from astrocytes
